Experimental findings from ChEMBL document CHEMBL4819052, “Structure-Based Approaches to Improving Selectivity through Utilizing Explicit Water Molecules: Discovery of Selective β-Secretase (BACE1) Inhibitors over BACE2” (J Med Chem, 2021) are described below.

The nature of this series: Dissociation constant, pKa of compound by capillary electrophoresis. In kind it is physicochemical.

With `CC#C[C@@]1(c2cc(NC(=O)c3cnc(OCF)cn3)ccc2F)CCOC(N)=N1`, the pKa – broadly, the pH at which an ionisable group is half protonated – stood at 8.4.

`CC#C[C@]1(c2cc(NC(=O)c3cnc(OCF)cn3)ccc2F)N=C(N)OC[C@@H]1F`: the pKa was 6.5. `CC#C[C@]1(c2cc(NC(=O)c3cnc(OCF)cn3)ccc2F)N=C(N)OCC12CC(F)(F)C2` yielded a pKa of 7.5. `CC#C[C@@]1(c2cc(NC(=O)c3ccc(C#N)cn3)ccc2F)CCOC(N)=N1` showed a pKa of 8.3.
